Results: ChEMBL document CHEMBL5344447, “A Homodimer of Withaferin A Formed by Base-Promoted Elimination of Acetic Acid from 27-O-Acetylwithaferin A Followed by a Diels-Alder Reaction” (J Nat Prod, 2024)

Key:
PC-3 = experiment: Cytotoxicity against human hormone nonresponsive PC-3 cells assessed as reduction in cell proliferation by MTT assay; format: functional, cell-based
DU-145 = experiment: Cytotoxicity against human hormone nonresponsive DU-145 cells assessed as reduction in cell proliferation by MTT assay; format: functional, cell-based
LNCaP = experiment: Cytotoxicity against human LNCaP cells assessed as reduction in cell proliferation by MTT assay; format: functional, cell-based
[1] = Cytotoxicity against human HFF cells assessed as reduction in cell proliferation by MTT assay; format: toxicity, cell-based
[2] = Cytotoxicity against human hormone nonresponsive and Castration-resistant 22Rv1 cells assessed as reduction in cell proliferation by MTT assay; format: functional, cell-based, Castration-resistant 22Rv1 cell

| SMILES | IC50 (PC-3) | IC50 (DU-145) | IC50 (LNCaP) | IC50 [1] | IC50 [2] |
| --- | --- | --- | --- | --- | --- |
| C=C1C(=O)O[C@@H]([C@@H](C)[C@H]2CC[C@H]3[C@@H]4C[C@H]5O[C@]56[C@@H](OC(C)=O)C=CC(=O)[C@]6(C)[C@H]4CC[C@]23C)C=C1C | 0.4 µM | 2.5 µM | 1.6 µM | 2 µM | 1.5 µM |
| CC(=O)OCC1=C(C)C[C@H]([C@@H](C)[C@H]2CC[C@H]3[C@@H]4C[C@H]5O[C@]56[C@@H](O)C=CC(=O)[C@]6(C)[C@H]4CC[C@]23C)OC1=O | 0.3 µM | 0.8 µM | 1.9 µM | 1.9 µM | 1.4 µM |
| C=C1C(=O)O[C@@H]([C@@H](C)[C@H]2CC[C@H]3[C@@H]4C[C@H]5O[C@]56[C@@H](O)C=CC(=O)[C@]6(C)[C@H]4CC[C@]23C)C=C1C | 2.2 µM | > 5 µM | > 5 µM | > 5 µM | > 5 µM |
| COc1cccc2c1C(=O)c1c(O)c3c(c(O)c1C2=O)C[C@@](O)(C(=O)CO)C[C@@H]3O[C@H]1C[C@H](N)[C@H](O)[C@H](C)O1 [DOXORUBICIN] | 0.6 µM | 0.1 µM | 0.1 µM | 1.4 µM | 0.04 µM |
| C=C1C[C@@H]([C@@H](C)[C@H]2CC[C@H]3[C@@H]4C[C@H]5O[C@]56[C@@H](OC(C)=O)C=CC(=O)[C@]6(C)[C@H]4CC[C@]23C)OC(=O)[C@@]12CCC1=C(C[C@@H]([C@@H](C)[C@H]3CC[C@H]4[C@@H]5C[C@H]6O[C@]67[C@@H](OC(C)=O)C=CC(=O)[C@]7(C)[C@H]5CC[C@]34C)OC1=O)C2 | 1 µM | 3.7 µM | > 5 µM | 2.5 µM | 2.6 µM |
| C=C1C[C@@H]([C@@H](C)[C@H]2CC[C@H]3[C@@H]4C[C@H]5O[C@]56[C@@H](O)C=CC(=O)[C@]6(C)[C@H]4CC[C@]23C)OC(=O)[C@@]12CCC1=C(C[C@@H]([C@@H](C)[C@H]3CC[C@H]4[C@@H]5C[C@H]6O[C@]67[C@@H](O)C=CC(=O)[C@]7(C)[C@H]5CC[C@]34C)OC1=O)C2 | 0.2 µM | 1 µM | 0.9 µM | 0.6 µM | 1.1 µM |
| C=C1C[C@@H]([C@@H](C)[C@H]2CC[C@H]3[C@@H]4C[C@H]5O[C@]56[C@@H](OC(=O)c5ccc([N+](=O)[O-])cc5)C=CC(=O)[C@]6(C)[C@H]4CC[C@]23C)OC(=O)[C@@]12CCC1=C(C[C@@H]([C@@H](C)[C@H]3CC[C@H]4[C@@H]5C[C@H]6O[C@]67[C@@H](OC(=O)c6ccc([N+](=O)[O-])cc6)C=CC(=O)[C@]7(C)[C@H]5CC[C@]34C)OC1=O)C2 | 0.2 µM | 1.1 µM | 2.3 µM | 0.5 µM | 1.1 µM |
